Article PMC11106739, “Discovery and Derivatization of Tridecaptin Antibiotics with Altered Host Specificity and Enhanced Bioactivity” (ACS Chemical Biology, 2024)
≈ marks a conversion by molar mass, not a printed value. Where a SMILES comes first, the peptide text is derived from it. [ ]: non-standard residue; d: D form. The star is where a group is joined. d(aIle) = CC[C@H](C)[C@@H](N)C(=O)O; dDab = NCC[C@@H](N)C(=O)O; Octanoyl = CCCCCCCC(=O)*; Dab = NCC[C@H](N)C(=O)O

Legend:
[1] = tested on: E. faecium ATCC 51559; format: cell-based, Enterococcus faecium; conditions: ATCC 51559, 20 h
Protocol: (§1) All minimum inhibitory concentrations (MICs) were determined according to the Clinical and Standards Laboratory Institute (CLSI) guidelines. In brief, agar plates were inoculated from glycerol stocks and incubated overnight at 35 °C. Peptide DMSO stocks were dispensed into 96-well round-bottom plates using a TECAN D300e dispenser. Colistin sulfate (Sigma-Aldrich) was dissolved in water and serially diluted in a cation-adjusted Mueller Hinton broth (10 μL per well). Final concentrations of the test compounds were 0.06 to 64 μg/mL. Inocula were prepared by direct colony suspension in NaCl at 0.5 MacFarland, which was further diluted 200-fold in cation-adjusted Mueller Hinton broth for a target inoculum of 2 × 10^5 colony forming units (CFUs)/mL. 100 μL portion of the prepared inoculum was added to each well of the prepared plates containing the test compounds. Plates were sealed with parafilm and incubated for 20 h at 35 °C. Images of all plates were recorded, and MIC was assessed visually.

[2] = tested on: E. faecium IHMA 890472; format: cell-based, Enterococcus faecium; conditions: IHMA 890472, 20 h
Protocol: as §1

[3] = tested on: S. aureus ATCC 29213; experiment: LIVE/DEAD staining (SYTO 9 / propidium iodide); format: cell-based, Staphylococcus aureus; conditions: S. aureus ATCC 29213, 1 × MIC, 15 min, microscopy
Protocol: This assay was performed according to a previously described procedure.[55],[56] Briefly, overnight cultures of E. coli ATCC 25922 and S. aureus ATCC 29213 were diluted to an OD600 of 0.2 in MHB and mixed with 1 × MIC of Oct-TriA1, Oct-TriA5, and Oct-TriD. Nisin and polymyxin B were used as positive controls at a concentration of 2-fold MIC. At the same time, green fluorescent nucleic acid stain SYTO 9 (excitation, 450–490 nm; emission, 500–550 nm) and red fluorescent nucleic acid stain propidium iodide (excitation, 574–599 nm; emission, 612–682 nm) (LIVE/DEAD Baclight Bacterial Viability Kit, Invitrogen) were added to the above cell suspensions. After mixing and incubating for 15 min in the dark at RT, cells were briefly sedimented via centrifugation and resuspended in fresh MHB. Then, the cell suspensions were loaded on 1.5% agarose pads and analyzed by a Zeiss Imager M2 microscope. Confocal images were obtained at 4 random locations for each sample and visualized using FIJI version 1.51H.[57]

[4] = tested on: K. pneumoniae ATCC 13883; format: cell-based, Klebsiella pneumoniae; conditions: ATCC 13883, 20 h
Protocol: as §1

[5] = tested on: K. pneumoniae 1227947; format: cell-based, Klebsiella pneumoniae; conditions: 1227947, 20 h
Protocol: as §1

[6] = tested on: K. pneumoniae 1228586; format: cell-based, Klebsiella pneumoniae; conditions: 1228586, 20 h
Protocol: as §1

[7] = tested on: E. faecalis ATCC 29212; format: cell-based, Enterococcus faecalis; conditions: ATCC 29212, 20 h
Protocol: as §1

[8] = tested on: ATCC 25922; format: cell-based, Enterococcus faecalis; conditions: ATCC 25922, 20 h
Protocol: as §1

[9] = tested on: A. baumannii IHMA 777621; format: cell-based, Acinetobacter baumannii; conditions: IHMA 777621, 20 h
Protocol: as §1

[10] = tested on: A. baumannii ATCC 17978; format: cell-based, Acinetobacter baumannii; conditions: ATCC 17978, 20 h
Protocol: as §1

[11] = tested on: A. baumannii HUMC1; format: cell-based, Acinetobacter baumannii; conditions: HUMC1, 20 h
Protocol: as §1

[12] = tested on: E. coli 1220120; format: cell-based, Escherichia coli; conditions: 1220120, 20 h
Protocol: as §1

[13] = tested on: E. coli ATCC 25922; format: cell-based, Escherichia coli; conditions: ATCC 25922, 20 h
Protocol: as §1

[14] = tested on: E. coli 1214245; format: cell-based, Escherichia coli; conditions: 1214245, 20 h
Protocol: as §1

[15] = tested on: P. aeruginosa 1218019; format: cell-based, Pseudomonas aeruginosa; conditions: 1218019, 20 h
Protocol: as §1

[16] = tested on: P. aeruginosa PAO1; format: cell-based, Pseudomonas aeruginosa; conditions: PAO1, 20 h
Protocol: as §1

[17] = tested on: P. aeruginosa 1226072; format: cell-based, Pseudomonas aeruginosa; conditions: 1226072, 20 h
Protocol: as §1

[18] = tested on: S. aureus UAMS-1625; format: cell-based, Staphylococcus aureus; conditions: S. aureus UAMS-1625 (BV18); CLSI broth dilution, cation-adjusted Mueller Hinton broth, 20 h, 35 °C, read visually
Protocol: as §1

[19] = tested on: S. aureus 1126387; format: cell-based, Staphylococcus aureus; conditions: 1126387, 20 h
Protocol: as §1

[20] = tested on: S. aureus ATCC 29213; format: cell-based, Staphylococcus aureus; conditions: ATCC 29213, 20 h
Protocol: as §1

[21] = tested on: HepG2 cells; experiment: Cytotoxicity determination (CellTiter-Glo); format: cell-based; conditions: HepG2, medium without serum, 24 h, normalization to the untreated control, 1 to 128 μg/mL tested
Protocol: HepG2 cells were grown in EMEM (Sigma) supplemented with 2 mM glutamine and 10% fetal bovine serum (Fisher) at 37 °C, 5% CO2. 20′000 cells per well were seeded into clear tissue culture-treated 96-well plates and incubated for 24 h. Peptides, dissolved in DMSO, were dispensed into 96 deep well plates (TECAN D300e dispenser) and diluted to a final concentration of 1 to 128 μg/mL using fresh medium without serum. The next day, the old media were removed from the cells, and 200 μL of the prepared compound dilutions was added per well. Plates were incubated for another 24 h before assessing the cell viability using the CellTiter-Glo kit (Promega) according to the manufacturer’s protocol. IC50s were calculated after normalization to the untreated control.

[22] = tested on: Gram-positive bacteria (Staphylococcus aureus, Enterococcus faecalis, Enterococcus faecium); experiment: MIC, summary over Gram-positive strains; format: cell-based; conditions: at a concentration of 64 μg/mL; summary of Table 2
Protocol: as §1

[23] = tested on: Gram-negative ESKAPE pathogens; format: cell-based; conditions: 20 h
Protocol: as §1

[24] = tested on: Rabbit red blood cells; experiment: Hemolysis assay; format: cell-based; conditions: rabbit red blood cells in PBS, 37 °C, 1 h, absorbance at 405 nm, normalization to the Triton X-100 control; 0.25 to 128 μg/mL tested
Protocol: Peptides, dissolved in DMSO, were dispensed into 96-well round-bottom microplates using a TECAN D300e dispenser and subsequently diluted with 100 μL of PBS. PBS or 2% Triton X-100 was used as negative and positive controls, respectively. Rabbit red blood cells (BioConcept) were diluted in PBS to a final concentration of 2%, and 100 μL was added to each well of the prepared 96-well plates. The final concentration of the test compounds was 0.25 to 128 μg/mL. Plates were incubated at 37 °C for 1 h and afterward subjected to centrifugation at 1000g for 5 min. Then, 30 μL of supernatant was transferred to a new round-bottom plate, and absorbance was measured at 405 nm (TECAN Infinite F200). EC50s were calculated after blank subtraction and normalization to the Triton control.

SMILES	MIC [1] [µg/mL]	MIC [2] [µg/mL]	LIVE/DEAD staining, membrane integrity of S. aureus cells [3]	MIC [4] [µg/mL]	MIC [5] [µg/mL]	MIC [6] [µg/mL]	MIC [7] [µg/mL]	MIC [8] [µg/mL]	MIC [9] [µg/mL]	MIC [10] [µg/mL]	MIC [11] [µg/mL]	MIC [12] [µg/mL]	MIC [13] [µg/mL]	MIC [14] [µg/mL]	MIC [15] [µg/mL]	MIC [16] [µg/mL]	MIC [17] [µg/mL]	MIC [18] [µg/mL]	MIC [19] [µg/mL]	MIC [20] [µg/mL]	further results
CCCCCCCC(=O)N[C@H](Cc1ccccc1)C(=O)N[C@H](CCN)C(=O)N[C@@H](C(=O)N[C@H](CO)C(=O)N[C@H](Cc1c[nH]c2ccccc12)C(=O)N[C@@H](CO)C(=O)N[C@@H](CO)C(=O)N[C@H](CCN)C(=O)N[C@@H](Cc1c[nH]c2ccccc12)C(=O)N[C@@H](CO)C(=O)N[C@H](C(=O)N[C@@H](C(=O)N[C@@H](CCN)C(=O)O)[C@@H](C)CC)C(C)C)[C@H](C)CC [Oct-TriD] (Octanoyl-[dF][dDab][dI][dS][dW]SS[dDab]WSV[d(aIle)][Dab]-OH)	4 (≈ 2.44 µM)	4 (≈ 2.44 µM)	had lysed	8 (≈ 4.88 µM)	>64	64 (≈ 39.1 µM)	8 (≈ 4.88 µM)	8 (≈ 4.88 µM)	8 (≈ 4.88 µM)	16 (≈ 9.77 µM)	16 (≈ 9.77 µM)	16 (≈ 9.77 µM)	32 (≈ 19.5 µM)	16 (≈ 9.77 µM)	32 (≈ 19.5 µM)	>64	32 (≈ 19.5 µM)	16 (≈ 9.77 µM)	16 (≈ 9.77 µM)	8 (≈ 4.88 µM)	
CCCCCCCC(=O)N[C@@H](C(=O)N[C@H](CCN)C(=O)NCC(=O)N[C@H](CO)C(=O)N[C@H](Cc1c[nH]c2ccccc12)C(=O)N[C@@H](CO)C(=O)N[C@@H](CCN)C(=O)N[C@H](CCN)C(=O)N[C@@H](Cc1ccccc1)C(=O)N[C@@H](CCC(=O)O)C(=O)N[C@H](C(=O)N[C@@H](C(=O)N[C@@H](C)C(=O)O)[C@@H](C)CC)C(C)C)C(C)C [Oct-TriA1] (Octanoyl-[dV][dDab]G[dS][dW]S[Dab][dDab]FEV[d(aIle)]A-OH)	32 (≈ 21 µM)	16 (≈ 10.5 µM)	still alive	4 (≈ 2.63 µM)	4 (≈ 2.63 µM)	4 (≈ 2.63 µM)	32 (≈ 21 µM)	32 (≈ 21 µM)	8 (≈ 5.26 µM)	8 (≈ 5.26 µM)	16 (≈ 10.5 µM)	2 (≈ 1.32 µM)	2 (≈ 1.32 µM)	2 (≈ 1.32 µM)	4 (≈ 2.63 µM)	64 (≈ 42.1 µM)	8 (≈ 5.26 µM)	32 (≈ 21 µM)	32 (≈ 21 µM)	32 (≈ 21 µM)	
CCCCCCCC(=O)N[C@@H](C(=O)N[C@H](CCN)C(=O)NCC(=O)N[C@H](CO)C(=O)N[C@H](Cc1c[nH]c2ccccc12)C(=O)N[C@@H](CO)C(=O)N[C@@H](CCN)C(=O)N[C@H](CCN)C(=O)N[C@@H](CCN)C(=O)N[C@@H](CCC(=O)O)C(=O)N[C@H](C(=O)N[C@@H](C(=O)N[C@@H](C)C(=O)O)[C@@H](C)CC)C(C)C)C(C)C [Oct-Dab9] (Octanoyl-[dV][dDab]G[dS][dW]S[Dab][dDab][Dab]EV[d(aIle)]A-OH)	>64	>64		>64	>64	>64	>64	>64	>64	>64	>64	>64	>64	>64	>64	>64	8 (≈ 5.43 µM)	>64	>64	>64	IC50 on HepG2 w/o FCS [21]: >128 µg/mL; antibacterial activity against Gram-positive bacteria [22]: no antibacterial activity; MICs, range over Gram-negative pathogens [23]: 8 to 64 µg/mL; Hemolysis EC50 [24]: >128 µg/mL
CCCCCCCC(=O)N[C@@H](C(=O)N[C@H](CCN)C(=O)NCC(=O)N[C@H](CO)C(=O)N[C@H](Cc1c[nH]c2ccccc12)C(=O)N[C@@H](CO)C(=O)N[C@@H](CCN)C(=O)N[C@H](CCN)C(=O)N[C@@H](C)C(=O)N[C@@H](CCC(=O)O)C(=O)N[C@H](C(=O)N[C@@H](C(=O)N[C@@H](C)C(=O)O)[C@@H](C)CC)C(C)C)C(C)C [Oct-Ala9] (Octanoyl-[dV][dDab]G[dS][dW]S[Dab][dDab]AEV[d(aIle)]A-OH)	>64	>64		8 (≈ 5.54 µM)	16 (≈ 11.1 µM)	8 (≈ 5.54 µM)	>64	>64	>64	>64	>64	8 (≈ 5.54 µM)	16 (≈ 11.1 µM)	16 (≈ 11.1 µM)	>64	64 (≈ 44.3 µM)	32 (≈ 22.1 µM)	>64	>64	>64	IC50 on HepG2 w/o FCS [21]: >128 µg/mL; antibacterial activity against Gram-positive bacteria [22]: no antibacterial activity; MICs, range over Gram-negative pathogens [23]: 8 to 64 µg/mL; Hemolysis EC50 [24]: >128 µg/mL
